# Measured values as given in the supplement of paper PMC10307832.
# Legend:
# Experiment in all cases: relative viability (nuclei count vs DMSO), 5 days (fraction); higher = more cells survive
# Alpelisib + Olaparib = compound: Cc1nc(NC(=O)N2CCC[C@H]2C(N)=O)sc1-c1ccnc(C(C)(C)C(F)(F)F)c1 [Alpelisib] + O=C(c1cc(Cc2n[nH]c(=O)c3ccccc23)ccc1F)N1CCN(C(=O)C2CC2)CC1 [Olaparib] (partner 8 µM)
# Outline: (§1)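 Lung cancer cell lines, seeded in 1536-well plates, were treated the following day by pin tool with a single drug or with five library-drug doses (not always all listed) in √10 steps on top of a fixed anchor-drug dose. Cells were fixed and nuclei stained in one step after 5 days, and nuclei were counted. Relative viability is the nuclei count for treated wells divided by that for vehicle wells, reported as medians of duplicate plates.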
# OSI-027 + Pictilisib = compound: COc1cccc2cc(-c3nc([C@H]4CC[C@H](C(=O)O)CC4)n4ncnc(N)c34)[nH]c12 [OSI-027] + CS(=O)(=O)N1CCN(Cc2cc3nc(-c4cccc5[nH]ncc45)nc(N4CCOCC4)c3s2)CC1 [Pictilisib] (partner 1 µM)
# Outline: as §1
# OSI-027 + Lapatinib = compound: COc1cccc2cc(-c3nc([C@H]4CC[C@H](C(=O)O)CC4)n4ncnc(N)c34)[nH]c12 [OSI-027] + CS(=O)(=O)CCNCc1ccc(-c2ccc3ncnc(Nc4ccc(OCc5cccc(F)c5)c(Cl)c4)c3c2)o1 [Lapatinib] (partner 2 µM)
# Outline: as §1
# Vemurafenib + Lapatinib = compound: CCCS(=O)(=O)Nc1ccc(F)c(C(=O)c2c[nH]c3ncc(-c4ccc(Cl)cc4)cc23)c1F [Vemurafenib] + CS(=O)(=O)CCNCc1ccc(-c2ccc3ncnc(Nc4ccc(OCc5cccc(F)c5)c(Cl)c4)c3c2)o1 [Lapatinib] (partner 2 µM)
# Outline: as §1
Cell Line,relative viability (Alpelisib + Olaparib; first compound 0.04 µM),relative viability (Alpelisib + Olaparib; first compound 0.1265 µM),relative viability (Alpelisib + Olaparib; first compound 0.4 µM),relative viability (Alpelisib + Olaparib; first compound 1.265 µM),relative viability (Alpelisib + Olaparib; first compound 4 µM),relative viability (OSI-027 + Pictilisib; first compound 0.01 µM),relative viability (OSI-027 + Pictilisib; first compound 0.03162 µM),relative viability (OSI-027 + Pictilisib; first compound 0.1 µM),relative viability (OSI-027 + Pictilisib; first compound 0.3162 µM),relative viability (OSI-027 + Pictilisib; first compound 1 µM),relative viability (OSI-027 + Lapatinib; first compound 0.01 µM),relative viability (OSI-027 + Lapatinib; first compound 0.03162 µM),relative viability (OSI-027 + Lapatinib; first compound 0.1 µM),relative viability (OSI-027 + Lapatinib; first compound 0.3162 µM),relative viability (OSI-027 + Lapatinib; first compound 1 µM),relative viability (Vemurafenib + Lapatinib; first compound 0.03162 µM),relative viability (Vemurafenib + Lapatinib; first compound 0.1 µM),relative viability (Vemurafenib + Lapatinib; first compound 0.3162 µM),relative viability (Vemurafenib + Lapatinib; first compound 1 µM)
HCC-44,0.979,0.943,1.07,0.979,0.936,0.521,0.572,0.481,0.32,0.365,1.05,0.975,0.93,0.85,0.444,0.991,0.993,0.935,1.04
HCC-78,0.694,0.825,0.857,0.44,0.521,0.202,0.225,0.184,0.19,0.207,0.6,0.77,0.472,0.787,0.518,0.725,0.832,0.982,0.386
HCC-366,0.338,0.287,0.374,0.217,0.16,0.179,0.154,0.165,0.124,0.0569,1.25,1.1,1.16,0.764,0.148,1.09,1.07,–,1.05
HCC-827,0.601,0.678,0.768,0.499,0.503,0.9,0.76,0.891,0.878,0.483,0.151,0.173,0.205,0.185,0.176,0.209,–,0.22,0.191
HOP-62,0.533,0.435,0.532,0.282,0.401,0.565,0.76,0.467,0.674,0.254,1.1,1.09,0.848,0.849,0.855,0.915,1.14,0.906,0.796
IA-LM,1.03,0.857,0.776,0.723,0.667,0.423,0.176,0.181,0.119,0.107,0.765,0.697,0.499,0.193,0.223,0.764,0.715,0.684,0.608
LC-2-ad,0.718,0.379,0.78,0.733,0.651,0.427,0.373,0.501,0.474,0.221,1.05,0.981,0.978,1.1,0.709,0.881,0.928,0.778,0.866
LCLC-97TM1,0.379,0.396,0.304,0.197,0.116,0.211,0.208,0.199,0.116,0.126,1.31,1.18,0.598,0.376,0.222,0.825,0.981,1.63,0.696
LCLC-103H,0.766,0.787,0.744,0.603,0.497,0.588,0.641,0.582,0.568,0.561,–,–,–,–,–,–,–,–,–
